Patent US20040054195A1, “Xanthene derivatives” (priority 2003, published 2004)
Several values for one entry are separate records, joined by “and”; a condition that tells them apart may be missing. Identical values can stand only once.

How the values were obtained:
[1] = Photostability study: irradiation with a 200 W soft white bulb, fluorescence of aliquots vs. time; assay type: physicochemical; conditions: 50 nM in pH 10 borate buffer, 200 watt soft white bulb at 10 cm, excitation at 459 nm, FIG. 4
Protocol: FIG. 4. Photostability comparison vs. time (hour) of 5 (*), 8 (▪), fluorescein (Δ) and BODIPY FL (♦); concentration 50 nM in pH 10 borate buffer. Excited at 459 nm for 5 and 8, 488 nm for fluorescein, 505 nm for BODIPY FL.
The photostability study was conducted by irradiating a 50 nM pH 10 sample solution of each dye (1, BODIPY-FL, 5 and 8) using a Hotspot lamp (Cheltenham, Pa.) with a 200W soft white bulb (General Electric, Canada), positioned at a distance of 10 cm between the sample and the bulb. The sample solution was cooled by circulating room temperature water. Fluorescence spectra were recorded on aliquots taken as a function of time.

[2] = UV absorbance spectrum in pH 10 borate buffer; assay type: physicochemical; conditions: 10 μM, inset of FIG. 3
Protocol: FIG. 3. Fluorescence spectra. Curve A: BODIPY FL in pH 10 buffer, 50 nM, excited at 505 nm, excitation and emission slit 2.5 nm; Curve B: fluorescein in pH 10 borate buffer, 50 nM, excited at 488 nm, excitation and emission slit 2.5 nm; Curve C: compound 8 in pH 10 borate buffer, 50 nM, excited at 459 nm, excitation slit 2.5 nm, emission slit 8 nm; Curve D: compound 8 in methanol, 50 nM, excited at 459 nm, excitation slit 2.5 nm, emission slit 8 nm; Inset is UV spectrum of 8 in pH 10 borate buffer, 10 μM, peak absorption wavelength: 459 nm and 483 nm.
In FIG. 3 the fluorescence spectra of fluorescein, a BODPIY FL dye (Molecular Probes Inc., Eugene Oreg.), and xanthamide dye 8 are compared. Fluorescein and BODIPY dyes are popular, and many instruments have been set up for their measurement. Thus it is attractive that xanthamide dye 8 has a similar fluorescence emission relative to that of fluorescein and a typical BODIPY dye. […] This adds to the practicality of 8.

| photostability relative to fluorescein and a typical BODIPY dye [1] | absorbance maxima [2] | SMILES |
| --- | --- | --- |
| very good photostability |  | CN(C)C(=O)c1ccccc1-c1c2ccc(=O)cc-2oc2cc(OCC(=O)O)ccc12 [compound 5, [9-(2-Dimethylcarbamoyl-phenyl)-6-oxo-6H-xanthen-3-yloxy]-acetic acid] |
| remarkable photostability | 459 nm and 483 nm | COc1ccc2c(-c3ccccc3C(=O)N3CCC(C(=O)O)CC3)c3ccc(=O)cc-3oc2c1 [compound 8, 1-[2-(6-Methoxy-3-oxo-3H-xanthen-9-yl)-benzoyl]-piperidine-4-carboxylic acid] |
